# Test results: the METLIN SMRT retention time set (Domingo-Almenara et al. 2019)
# Test: gradient 5% acetonitrile 3 min, to 50% in 2 min, to 85% in 15 min, held 3 min, 100 µL/min
# Settings: column: Zorbax Extend-C18 2.1 x 50 mm; eluents: water / acetonitrile, 0.1% formic acid
# In short: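 Pure standards were analyzed in mixtures of ~100 molecules using HPLC coupled to a quadrupole time-of-flight mass spectrometer, in both positive and negative ionization mode. Separation used a Zorbax Extend-C18 column (2.1 × 50 mm, 1.8 μm) at 100 μL/min, with water and acetonitrile each containing 0.1% formic acid. Dead and dwell volumes were 40 μL and 900 μL, and data were collected over 3 months. Retention time was read from computationally picked adduct peaks, each inspected manually.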
row,SMILES,RP-LC retention time [s]
1,COc1ccc(C(=O)N2CCCC2c2nc(-c3ccc(OC)c(OC)c3)no2)c(OC)c1 (stereo not drawn),866
2,Cc1ccc(-c2csc(NC(=O)COc3ccc(Cl)cc3C)n2)cc1,1350
3,CCc1ccc(S(=O)(=O)N2CCCC2c2nc(-c3cccc(Cl)c3)no2)cc1 (stereo not drawn),1300
4,CC(C)NC(=O)c1cc2nc(N(C)C)n(-c3ccccc3)c2s1,885
5,Cc1cccc(NC(=O)N2CCN(c3nc(C)cc(Nc4ccccc4)n3)CC2)c1,733
6,CCn1nc(N2CCCC(NS(=O)(=O)c3ccc(F)c(Cl)c3)C2)ccc1=O (stereo not drawn),817
7,C(=C\CSc1ccccn1)/CSc1ccccn1,955
8,O=C(NCc1ccccc1)c1csc(Nc2ccncn2)n1,687
9,CCCNC(=O)C1CCN(c2ccc(SCC(=O)NCc3ccc(C)cc3)nn2)CC1,656
10,CCCNC(=O)C1CCN(c2cnc(N3CCN(CC)CC3)nc2)CC1,565
11,COc1cc(NC(=O)C2CCCN2S(=O)(=O)c2ccc3c(c2)CC(C)N3C(C)=O)cc(OC)c1 (stereo not drawn),844
12,Cc1nc(CCNC(=O)C2CCN(S(=O)(=O)c3ccc(F)c(Cl)c3)CC2)cs1,762
13,CCn1c(=O)c2c(cc(C)n2C)n(CC(=O)Nc2ccc(F)cc2F)c1=O,764
14,Cn1c(=O)c(N2CCC(C(=O)NCc3cccs3)CC2)nc2ccccc21,805
15,COC(=O)c1ccc(NS(=O)(=O)c2ccc3c(c2)C(=O)N(C)c2ncccc2O3)cc1,881
16,Cc1ccc(C)c(NC(=O)NCCn2nnc3cc(C(=O)N(C)C)ccc32)c1,664
17,COc1ccc(Cl)cc1C(=O)NC1CCN(c2cc(-c3ccccc3)[nH]n2)C1 (stereo not drawn),784
18,CC1(C)C(=O)Nc2ccc(S(=O)(=O)N3CCC(c4noc(-c5ccccc5)n4)C3)cc21 (stereo not drawn),883
19,COC(=O)c1sccc1NC(=O)N1CCCn2nc(-c3cccc(Cl)c3)cc2C1,972
20,NS(=O)(=O)c1ccc(CCNC(=O)c2ccc(=O)[nH]n2)cc1,542
21,CN(C)C(=O)N1CC(c2nc(-c3ccc(F)cc3)no2)C2(CCOCC2)C1 (stereo not drawn),790
22,Cc1ccc(Sc2nccnc2N2CCCC(C(=O)N3CCN(c4ccccc4C)CC3)C2)cc1 (stereo not drawn),1330

row,SMILES,RP-LC retention time [s]
1,COc1cccc(CNC(=O)c2c(C)oc3ccn(C)c(=O)c23)c1,844
2,Cc1nc(N)nc(Nc2ccc(C#N)cc2)c1Br,658
3,Cc1cnn(Cc2nc(-c3ccc(NC(=O)Cc4ccccc4C)cc3)oc2C)c1,954
4,CCN1CCN(c2cc(C(=O)O)c3cc(NC(=O)C4CCC4)ccc3n2)CC1,565
5,CCOCCCNC(=O)c1c2c(cn(-c3ccc(Cl)cc3)c1=O)C(=O)CC(C)(C)C2,931
6,COC(=O)c1c(-c2ccccc2)noc1N1CCOCC1,860
7,Cc1cc(NC(=O)CN(C)CCC#N)nc2c1c(=O)oc1ccccc12,694
8,Cc1ccc(NC(=O)N2CCCC2c2nc(-c3cccc(Cl)c3)no2)cc1 (stereo not drawn),1110
9,CCn1nccc1C(=O)Nc1cc(-c2cc3ccccc3n2CC)[nH]n1,876
10,Cn1nc(C(=O)N2CCCCC2)c2c1CCN(C(=O)Nc1ccc3c(c1)OCO3)C2,717
11,Cc1ccccc1Cn1cc(-c2ccncc2)cc1C(=O)NCc1cccnc1,581
12,Cc1ccc(CNC(=O)C2CCN(S(=O)(=O)c3cn(C)cn3)CC2)cc1,732
13,Cc1nc(-c2cccnc2)nc2c1CCC(=O)N2Cc1ccccn1,566
14,CCn1cc(CN2CCC(C(=O)NCc3ccc(C)o3)CC2)c2ccccc21,690
15,Cc1nc2cc(-c3noc(-c4ccc(C(F)(F)F)cc4)n3)ccc2n(C)c1=O,1180
16,Nc1ncnc2c1nc(Cl)n2C1OC2COP(=O)(O)OC2C1O (stereo not drawn),523
17,Cc1onc(-c2ccncc2)c1C(=O)NCCN(C)C1CCCCC1,575
18,Cc1ccc(CNC(=O)Cn2c(C)cc(-c3nnc(-c4ccccc4)o3)c2C)cc1,949
19,COc1cccc2sc(N(Cc3ccco3)C(=O)c3cc(C)nn3C)nc12,927
20,Cc1cc(-c2nnc(C3CCC3)o2)c(C)n1CC(=O)Nc1ccc(Br)cc1F,982
21,COC(=O)c1cnn(-c2ccc(C(=O)NC3CCCC3)cc2)c1N,716
22,Cc1cc(C)c(NC(=O)Cn2c(=O)n(-c3ccc(F)cc3)c(=O)c3c2cc(C)n3C)c(C)c1,921

row,SMILES,RP-LC retention time [s]
1,O=C(Cn1nc2c(N3CCCCCC3)nccn2c1=O)Nc1cccc(C(F)(F)F)c1,805
2,O=C(NCc1noc(C2CCCC2)n1)c1coc(C2CC2)n1,821
3,Cc1ccc(NC(=O)C2CCCN2S(=O)(=O)c2cc3c(cc2Cl)NC(=O)CO3)cc1C (stereo not drawn),832
4,Cc1ccc(CCNC(=O)c2nc(N3CCOCC3)c3ccccc3n2)cc1,729
5,CCC1CCC(c2nnc(-c3ccc([N+](=O)[O-])cc3)o2)CC1 (stereo not drawn),1120
6,CCc1nc2cc(-c3noc(C4(c5ccccc5)CC4)n3)ccc2o1,1220
7,O=C(C1CCCO1)N1CCCN(Cc2nc(-c3ccc(Cl)cc3)no2)CC1 (stereo not drawn),706
8,Cc1cc(NC(=O)C2CCC2)nn1Cc1ccccc1,841
9,CC1(C(=O)NC2CC2)CC(c2ccccc2)=NO1 (stereo not drawn),749
10,Cc1sc2cc(C(=O)N3CCN(c4ccccc4F)CC3)[nH]c2c1CN1CCOCC1,704
11,COc1ccccc1C(=O)N1CCN(c2nc3ccccc3n(C)c2=O)CC1,830
12,Cc1ccc(-n2nc(N3CCCN(S(=O)(=O)c4ccccc4F)CC3)ccc2=O)cc1,860
13,Fc1ccc(-c2noc(Cc3nc(-c4ccc(Cl)cc4)cs3)n2)cc1,1310
14,Cc1c(C(=O)N2CCSCC2)cnn1-c1cc(-c2nc(C(C)(C)C)no2)ccn1,1070
15,Cc1cc(Cl)ccc1S(=O)(=O)Nc1ccc(Cn2cncn2)cc1,782
16,O=C(Cc1ccsc1)NCCn1c(=O)n(Cc2ccccc2)c2cccnc21,772
17,COc1cccc(CN2CCC(N3C[C@H](OC)[C@@H]3c3cccnc3)CC2)n1,504
18,CC1Oc2ccc(-c3csc(NC(=O)c4cccc(F)c4)n3)cc2N(C)C1=O (stereo not drawn),943
19,CCOc1ccc(C2C(C(=O)N3CCCCC3)=C(C)NC3=C2C(=O)CCC3)cc1OC (stereo not drawn),674
20,Cc1cccc(-n2cc(C(=O)OCc3cccnc3)c3ccccc3c2=O)c1,808
21,CC(=O)Nc1ccc(C(=O)NC2CCN(c3cc(-c4ccccc4)[nH]n3)C2)cc1 (stereo not drawn),626
22,CCOC(=O)N1CCN(C(=O)Cn2cnc(-c3ccc(OC)cc3)cc2=O)CC1,652

row,SMILES,RP-LC retention time [s]
1,COCCn1c(CCCC(=O)NCc2ccc(C(C)C)cc2)nc2cccnc21,741
2,O=c1c2cnn(-c3ccc(F)cc3)c2ncn1Cc1nc(-c2ccc(OC(F)(F)F)cc2)no1,1160
3,O=C(Cn1nc2c(N3CCCCCC3)nccn2c1=O)NCCC1=CCCCC1,784
4,Cc1nc2ccn(Cc3cccnc3)c(=O)c2cc1C(=O)NCCc1ccco1,598
5,CC(C)c1cc(C(=O)N2CCCCC2)nc2ccnn12,767
6,O=S(=O)(c1cccc(Br)c1)N1CCc2nc(-c3ccc(F)cc3)ncc2C1,1160
7,CC(=O)N1CCc2c(-c3ccccc3)cccc2[C@H]1C,976
8,CCn1nccc1-c1cccc(-c2noc(CNC(=O)c3ccccc3)n2)c1,874
9,COCCN1C(=O)CCc2cc(NS(=O)(=O)c3ccc(F)cc3F)ccc21,723
10,CCNC(=O)Nc1ccc(OCC(=O)NC(C)c2cccc(OC)c2)nc1 (stereo not drawn),686
11,Cc1ccc(CNC(=O)Nc2ccc(-c3nc(-c4ccccc4)co3)cc2)cc1,1100
12,Cc1sc2ccn(Cc3ccc(F)cc3)c(=O)c2c1C(=O)NCCN1CCCC1,662
13,COc1ccc(-c2nc(Cn3ccn4nc(-c5ccc(F)cc5)cc4c3=O)c(C)o2)cc1,670
14,CCc1noc(NC(C)=O)c1-c1ccc(C)c(S(=O)(=O)Nc2cccc(C)c2)c1,826
15,CCOc1ccccc1-n1c(C(C)N2CCN(C(=O)COc3ccc(Cl)cc3)CC2)nc2ccccc2c1=O (stereo not drawn),802
16,Cc1cc(OCC(=O)Nc2ccc(C#N)cc2)nc(-c2ccc(F)cc2)n1,976
17,O=c1n(Cc2ccc(F)cc2Cl)nc2ccc(S(=O)(=O)N3CCCCCC3)cn12,1050
18,CCc1ccc(NC(=O)Cc2c(C)n(C)c3nc(-c4ccccc4)nn3c2=O)cc1,887
19,CCOc1ccc(C(=O)n2nc(C)c(S(=O)(=O)N3CCCC3)c2C)cc1,1130
20,Cn1c(C2CCN(S(C)(=O)=O)CC2)nn(Cc2ccc(Cl)c(Cl)c2)c1=O,739
21,O=C(NCCn1nc(-n2ccnc2)ccc1=O)c1cccc(-n2cnnn2)c1,521
22,Cc1cc(C)n(-c2nccnc2SCC(=O)Nc2cccc(Cl)c2C)n1,871
